Experiment [1] relates to MDA-MB-231. Briefly: Cytotoxicity against human MDA-MB-231 cells after 48 hrs by MTS assay. Type of experiment: functional. Particulars: MDA-MB-231, 48 h.
Experiment [2] deals with DU-145. In words: Cytotoxicity against human DU145 cells after 48 hrs by MTS assay. In kind it is functional. Particulars: DU-145, 48 h.
Experiment [3] has as its system JIMT-1. In words: Cytotoxicity against human JIMT1 cells after 48 hrs by MTS assay. Type of experiment: functional. Particulars: JIMT-1, 48 h. On the technique in general: Tetrazolium dyes change colour on reduction, which living cells bring about.
Experiment [4] concerns MIA PaCa-2. In words: Cytotoxicity against human MIAPaCa2 cells after 48 hrs by MTS assay. Type of experiment: functional. Particulars: MIA PaCa-2, 48 h.
The test system of experiment [5] is PC-3. Briefly: Cytotoxicity against human PC3 cells after 48 hrs by MTS assay. In kind it is functional. Particulars: PC-3, 48 h.
The test system of experiment [6] is BT-474. In words: Cytotoxicity against human BT474 cells after 48 hrs by MTS assay. The following applies: BT-474, 48 h. In kind it is functional.
The test system of experiment [7] is BT-474. In words: Disruption of preformed spheroids in human BT474 cancer stem cells at 5 to 10 uM after 4 days by microscopic analysis. Type of experiment: functional.
The test system of experiment [8] is DU-145. In words: Disruption of preformed spheroids in human DU145 cancer stem cells at 5 to 10 uM after 4 days by microscopic analysis. Type of experiment: functional.
Experiment [9] concerns BT-474. In words: Cytotoxicity against human BT474 cancer stem cell spheroids assessed as reduction in cell viability at 5 to 10 uM after 5 to 6 days by MTS assay. In kind it is functional.
For experiment [10], the system named is DU-145. Briefly: Cytotoxicity against human DU145 cancer stem cell spheroids assessed as reduction in cell viability at 5 to 10 uM after 5 to 6 days by MTS assay. In kind it is functional.
The test system of experiment [11] is BT-474. Briefly: Cytotoxicity against human BT474 cancer stem cell spheroids assessed as reduction in cell viability up to 20 uM after 3 to 5 days by MTS assay. Type of experiment: functional, cell-based.
In experiment [12] the test system is DU-145. Briefly: Cytotoxicity against human DU145 cancer stem cell spheroids assessed as reduction in cell viability up to 20 uM after 3 to 5 days by MTS assay. Type of experiment: functional, cell-based.
Experiment [13] deals with BT-474. In words: Disruption of preformed spheroids in human BT474 cancer stem cells at 20 uM after 3 days by microscopic analysis. In kind it is functional, cell-based.
The test system of experiment [14] is DU-145. Briefly: Disruption of preformed spheroids in human DU145 cancer stem cells at 20 uM after 3 days by microscopic analysis. Type of experiment: functional, cell-based.
Experiment [15] concerns BT-474. Briefly: Cytotoxicity against human BT474 cancer stem cell spheroids assessed as reduction in cell viability at 5 uM after 5 to 6 days by MTS assay. In kind it is functional.
Experiment [16] has as its system DU-145. In words: Cytotoxicity against human DU145 cancer stem cell spheroids assessed as reduction in cell viability at 5 uM after 5 to 6 days by MTS assay. In kind it is functional.
Experiment [17] has as its system BT-474. Briefly: Disruption of preformed spheroids in human BT474 cancer stem cells at 7.5 uM after 3 days by microscopic analysis. In kind it is functional, cell-based.
Experiment [18] relates to DU-145. Briefly: Disruption of preformed spheroids in human DU145 cancer stem cells at 7.5 uM after 3 days by microscopic analysis. Type of experiment: functional, cell-based.
Experiment [19] relates to MDA-MB-231. Briefly: Potency index, ratio of salinomycin CC50 to test compound CC50 for human MDA-MB-231 cells. Type of experiment: functional.
Experiment [20] has as its system DU-145. In words: Potency index, ratio of salinomycin CC50 to test compound CC50 for human DU145 cells. In kind it is functional.
Experiment [21] has as its system MIA PaCa-2. Briefly: Potency index, ratio of salinomycin CC50 to test compound CC50 for human MIAPaCa2 cells. In kind it is functional.
Experiment [22] concerns BT-474. Briefly: Potency index, ratio of salinomycin CC50 to test compound CC50 for human BT474 cells. Type of experiment: functional.

In general, CC50 refers to the concentration giving 50% cytotoxicity. A low value points to greater toxicity to the cells.

The source made the active and inactive calls. No cut-off for these calls is given here.

As to `CCCCCCCCCCCCCCCCOC[C@H](CN=[N+]=[N-])O[C@@H]1O[C@H](CO)[C@@H](O)[C@H](O)[C@H]1N`, the CC50 in [1] turned out to be 11 µM; in experiment [2], 12.5 µM; in experiment [3], 9.5 µM; in [4] it was 11.5 µM; in experiment [5], 6 µM; in experiment [6], 22 µM. Besides, the CC90 in experiment [1] was found to be 15 µM; in [2] it was 18 µM; in experiment [3], 13.5 µM; in [4] it was 18.5 µM; in experiment [5] it was 15 µM; in experiment [6], 28 µM.

Take `CCCCCCCCCCCCCCCCOC[C@@H](CO[C@@H]1O[C@H](CO)[C@@H](O)[C@H](O)[C@H]1N)OC`: the half-maximal cytotoxic concentration (CC50) in [2] came to 10 µM; in experiment [3], 9 µM; in experiment [4], 9 µM; in [5], 13.5 µM; in [6] it was 8 µM. Also, the CC90 came out at 15 µM in experiment [2]; 16 µM in experiment [3]; 18 µM in [4]; 28 µM in [5]; 13 µM in [6].

As for `CCCCCCCCCCCCCCCCOC[C@@H](CO[C@@H]1O[C@H](CN)[C@@H](O)[C@H](O)[C@H]1N)OC`, the CC50 in experiment [1] was 5.5 µM; in [2], 6 µM; in [3], 4.2 µM; in experiment [4], 7 µM; in [5], 11 µM; in experiment [6], 11.5 µM. The CC90 in [1] worked out at 7 µM; in experiment [2], 8.5 µM; in [3], 6.5 µM; in [4] it was 12 µM; in experiment [5], 14 µM; in experiment [6] it was 14 µM. For the same molecule, the Activity in [7], in experiment [8], in [9] and in [10] was 100% each time.

As to `CCCCCCCCCCCCCCCCOC[C@H](CO[C@@H]1O[C@H](CO)[C@@H](O)[C@H](O)[C@H]1N)NC(=O)CCCCCCCCCCCCCCC`, the CC50 in experiment [1] was over 30 µM.

With `CCCCCCCCCCCCCCCCOC[C@H](CN)O[C@@H]1O[C@H](CO)[C@@H](O)[C@H](O)[C@H]1N`, the CC50 in experiment [1] is 12 µM; in experiment [2] it was 17.5 µM; in [3] it was 14 µM; in experiment [4] it was 15 µM; in [5] it was 9.5 µM; in experiment [6], 25 µM. Moreover, the CC90 was 17.5 µM in experiment [1]; 25 µM in [2]; 19 µM in [3]; 28 µM in experiment [4]; 17 µM in experiment [5]; over 30 µM in experiment [6].

As to `CCCCCCCCCCCCCCCCOC[C@@H](N)CO[C@@H]1O[C@H](CO)[C@@H](O)[C@H](O)[C@H]1N`, the CC50 in [1] was determined as 6 µM; in experiment [2], 6 µM; in [3] it was 5.5 µM; in experiment [4], 8.5 µM; in [5], 9 µM; in experiment [6], 15.5 µM. The CC90 turned out to be 9 µM in experiment [1]; 9 µM in experiment [2]; 7.5 µM in experiment [3]; 14 µM in [4]; 14 µM in experiment [5]; 28 µM in experiment [6]. Besides, the Activity in [7], in experiment [8], in experiment [9] and in experiment [10] was 100% throughout.

Regarding `CCCCCCCCCCCCCCN`, the result in [11], in experiment [12], in experiment [13] and in experiment [14] was inactive.

Regarding `CCCCCCCCCCCCCCCCOCCCO[C@@H]1O[C@H](CN)[C@@H](O)[C@H](O)[C@H]1N`, the CC50 was determined as 4.5 µM in [1]; 6 µM in experiment [2]; 4 µM in [3]; 6.5 µM in experiment [4]; 8 µM in [5]; 8.5 µM in experiment [6]. The CC90 in experiment [1] was found to be 7 µM; in [2] it was 8.5 µM; in [3] it was 6 µM; in [4], 13 µM; in experiment [5], 14 µM; in [6] it was 17.5 µM. Further, the Activity in experiment [7] is on record as 100%; in [8], 100%; in experiment [9], 100%; in experiment [10] it was 100%; in experiment [15], over 95%; in [16], over 95%.

On to `CC[C@@H](C(=O)[C@@H](C)[C@@H](O)[C@H](C)[C@@H]1O[C@@H]([C@@H](CC)C(=O)O)CC[C@@H]1C)[C@H]1O[C@]2(C=C[C@@H](O)[C@]3(CC[C@@](C)([C@H]4CC[C@](O)(CC)[C@H](C)O4)O3)O2)[C@H](C)C[C@@H]1C` [SALINOMYCIN], for which the CC50 in [1] is over 20 µM; in experiment [2] it was over 20 µM; in experiment [4], 6.5 µM; in experiment [6], 14 µM. Moreover, the result in experiment [17] and in experiment [18] was Active.

Take `CCCCCCCCCCCCCCCCOC[C@H](CO[C@@H]1O[C@H](CO)[C@@H](O)[C@H](O)[C@H]1N)NC(=O)OC`: the CC50 was determined as 16 µM in [1]; 14 µM in experiment [2]; 12.5 µM in experiment [3]; 18 µM in experiment [4]; 20 µM in [5]; 23 µM in experiment [6]. Further, the CC90 amounted to 19 µM in experiment [1]; 19 µM in [2]; 15 µM in [3]; 29 µM in experiment [4]; 29 µM in experiment [5]; 29 µM in [6].

`O=C(O)CCCc1ccc(N(CCCl)CCCl)cc1` [CHLORAMBUCIL] displayed a CC50 in experiment [1] of over 150 µM.

For the molecule `CCCCCCCCCCCCCCCCOC[C@@H](CO[C@@H]1O[C@H](CN)[C@@H](O)[C@H](O)[C@H]1N1C(=O)c2ccccc2C1=O)OC`, the CC50 in experiment [1] is 20 µM; in experiment [2], over 30 µM; in experiment [5], 15 µM.

Regarding `CCCCCCCCCCCCCCCCOC[C@@H](CO[C@H]1O[C@H](CN)[C@@H](O)[C@H](O)[C@H]1N)OC`, the CC50 in [1] was found to be 3 µM; in [2] it was 5.2 µM; in experiment [3] it was 3.5 µM; in [4], 3.5 µM; in experiment [5], 3.5 µM; in experiment [6] it was 7.5 µM. The CC90 in experiment [1] was found to be 4.5 µM; in experiment [2], 7.4 µM; in experiment [3] it was 4.9 µM; in experiment [4], 6.5 µM; in [5], 6 µM; in experiment [6], 9.5 µM. In addition, the Activity in experiment [7] is given as 100%; in experiment [8], 100%; in experiment [9], 100%; in experiment [10] it was 100%; in [15], over 95%; in [16] it was over 95%. For the same molecule, the Ratio in experiment [19] was over 6; in experiment [20] it was over 4; in experiment [21], 2; in [22] it was 2.

Turning to `CCCCCCCCCCCCCCCCOC[C@H](CO[C@@H]1O[C@H](CN)[C@@H](O)[C@H](O)[C@H]1N)O[C@@H]1O[C@H](CN)[C@@H](O)[C@H](O)[C@H]1N`, the CC50 in experiment [1] is over 30 µM.
